Tests used:
[1] = Stability confirmation test (impurity formation during storage under severe conditions, liquid chromatography); format: physicochemical
Procedure: The stability test was carried out for the crystalline forms prepared in the Examples to evaluate the degree to which impurities were formed during storage under severe conditions (moisture-proof condition and high-humidity exposure condition). The results of the stability test under the moisture-proof condition were shown in Table 2 below, and the results of the stability test under the high-humidity exposure condition were shown in Table 3 below. For the stability test, vials containing 10 mg of each sample which was precisely weighed and taken were prepared in the planned quantity, and they were stored by dividing into the moisture-proof condition (60° C. and less than 10% relative humidity) and under the high-humidity exposure condition (60° C. and 95% relative humidity). However, under the high-humidity exposure condition, a stopper of the vial was not used to keep so that the sample is in sufficient contact with a moisture in the air. At a fixed point of time after the initiation of the test, two vials per point of time were taken (number of samples per test n=2). 10 ml of methanol was added to each vial to dissolve the sample, which was then centrifuged. The resulting supernatant was analyzed using a liquid chromatography. The peak area was determined by integration for all detected peaks, and the relative peak area for the main component and the total impurity was calculated and expressed as an average value.

Solubility test in water = format: physicochemical; conditions: thermodynamic from solid; deionized water, shaking and ultrasonic shaking
Procedure: For the solubility test in water, a sample of less than 10 mg was first precisely weighed and taken and placed into a vial, to which 50 μl of deionized water was added, shaking for 30 seconds and ultrasonic shaking for 1 minute were carried out, and these processes were repeated several times. The water solubility was calculated by measuring the amount of water used to dissolve all the samples.

[2] = high-humidity exposure condition (60° C., 95% relative humidity), After 1 week
[3] = high-humidity exposure condition (60° C., 95% relative humidity), After 2 weeks
[4] = high-humidity exposure condition (60° C., 95% relative humidity), After 4 weeks
[5] = high-humidity exposure condition (60° C., 95% relative humidity), Initial
[6] = moisture-proof condition (60° C., less than 10% relative humidity), After 2 weeks
[7] = moisture-proof condition (60° C., less than 10% relative humidity), After 4 weeks
[8] = moisture-proof condition (60° C., less than 10% relative humidity), Initial

| Structure (SMILES) | Peak area of main component [1, 2] [%] | Peak area of total impurities [1, 2] [%] | Peak area of main component [1, 3] [%] | Peak area of total impurities [1, 3] [%] | Peak area of main component [1, 4] [%] | Peak area of total impurities [1, 4] [%] | Peak area of main component [1, 5] [%] | Peak area of total impurities [1, 5] [%] | Peak area of main component [1, 6] [%] | Peak area of total impurities [1, 6] [%] | Peak area of main component [1, 7] [%] | Peak area of total impurities [1, 7] [%] | Peak area of main component [1, 8] [%] | Peak area of total impurities [1, 8] [%] | solubility (Solubility test in water) [µg/mL] |
| --- | --- | --- | --- | --- | --- | --- | --- | --- | --- | --- | --- | --- | --- | --- | --- |
| CNCc1cn(S(=O)(=O)c2cccc(F)c2)c(-c2ccc(F)cc2F)c1OC.O=C(O)CCC(=O)O [Example 3-1, 1-(5-(2,4-difluorophenyl)-1-((3-fluorophenyl)sulfonyl)-4-methoxy-1H-pyrrol-3-yl)-N-methylmethanamine succinate] | 99.56 | 0.44 | 99.53 | 0.47 | 99.47 | 0.54 | 99.55 | 0.45 | 99.61 | 0.39 | 99.55 | 0.45 | 99.55 | 0.45 |  |
| CNCc1cn(S(=O)(=O)c2cccc(F)c2)c(-c2ccc(F)cc2F)c1OC.O=C(O)C(O)C(O)C(=O)O [Example 4-1, 1-(5-(2,4-difluorophenyl)-1-((3-fluorophenyl)sulfonyl)-4-methoxy-1H-pyrrol-3-yl)-N-methylmethanamine tartrate] | 99.48 | 0.52 | 99.43 | 0.57 | 99.23 | 0.77 | 99.52 | 0.48 | 99.54 | 0.46 | 99.48 | 0.52 | 99.52 | 0.48 |  |
| CNCc1cn(S(=O)(=O)c2cccc(F)c2)c(-c2ccc(F)cc2F)c1OC [Comparative Example 1, 1-(5-(2,4-difluorophenyl)-1-((3-fluorophenyl)sulfonyl)-4-methoxy-1H-pyrrol-3-yl)-N-methylmethanamine free base] |  |  |  |  |  |  |  |  |  |  |  |  |  |  | < 160 |
| CNCc1cn(S(=O)(=O)c2cccc(F)c2)c(-c2ccc(F)cc2F)c1OC.Cl [Example 1-1, 1-(5-(2,4-difluorophenyl)-1-((3-fluorophenyl)sulfonyl)-4-methoxy-1H-pyrrol-3-yl)-N-methylmethanamine hydrochloride] | 99.81 | 0.19 | 99.80 | 0.20 | 99.80 | 0.20 | 99.82 | 0.18 | 99.80 | 0.19 | 99.80 | 0.20 | 99.82 | 0.18 |  |
| CNCc1cn(S(=O)(=O)c2cccc(F)c2)c(-c2ccc(F)cc2F)c1OC.O=C(O)/C=C/C(=O)O [Example 5-1, 1-(5-(2,4-difluorophenyl)-1-((3-fluorophenyl)sulfonyl)-4-methoxy-1H-pyrrol-3-yl)-N-methylmethanamine fumarate] | 99.40 | 0.60 | 99.32 | 0.68 | 99.30 | 0.70 | 99.38 | 0.62 | 99.36 | 0.64 | 99.37 | 0.63 | 99.38 | 0.62 | 1730 to 2600 |

From patent publication US11858894B2, “Crystalline form of 1-(5-(2,4-Difluorophenyl)-1-((3-fluorophenyl)sulfonyl)-4-methoxy-1H-pyrrol-3-yl)-n-methylmethanamine salt” (Daewoong Pharmaceutical Co., Ltd., priority 2016, dated 2024)
